From patent US10172830B2, “Pyrazolone compounds having human neutrophil elastase inhibitory properties” (CHIESI FARMACEUTICI S.P.A., priority 2016, dated 2019)

Target: T1, human neutrophil elastase (HNE) (Homo sapiens, UniProt P08246)
T1 construct: purchased Sigma E8140
T1 sequence (P08246 30-247 limits assumed): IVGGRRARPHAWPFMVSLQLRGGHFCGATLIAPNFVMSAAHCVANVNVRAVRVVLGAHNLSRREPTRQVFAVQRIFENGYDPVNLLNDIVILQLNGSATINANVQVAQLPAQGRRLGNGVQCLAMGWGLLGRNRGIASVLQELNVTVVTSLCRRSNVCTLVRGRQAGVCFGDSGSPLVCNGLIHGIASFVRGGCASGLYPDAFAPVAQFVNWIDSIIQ
Assay: HNE enzyme assay (human neutrophil elastase enzyme activity assay)
Format: biochemical
Settings: human leukocyte elastase 0.00072 U/mL; substrate MeOSuc-Ala-Ala-Pro-Val-AMC 100 μM; 25° C. for 30 minutes; at least two separate experiments; read-out: HNE inhibition (HNE enzyme inhibition, IC50 values)
How it was run: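 Human leukocyte elastase (0.00072 U/mL) with 100 μM MeOSuc-AAPV-AMC in Tris/NaCl/CaCl2/Brij-35 buffer, pH 7.5, 1% DMSO, 30 min at 25 °C; stopped with soybean trypsin inhibitor. AMC fluorescence (380/460 nm) as % inhibition of control; IC50 from dose-response curves, ≥2 experiments.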

IC50 [nM] | Structure (SMILES)
< 1 | C[C@H](NC(=O)c1c(-c2ccnn2-c2ccc(C#N)cc2)n(C)n(-c2cccc(C(F)(F)F)c2)c1=O)C(=O)N1CCC([N+](C)(C)Cc2ccccc2)CC1 [Example 35, Benzyl-[1-((S)-2-{[2′-(4-cyano-phenyl)-2-methyl-5-oxo-1-(3-trifluoromethyl-phenyl)-2,5-dihydro-1H,2′H-[3,3′]bipyrazolyl-4-carbonyl]-amino}-propionyl)-piperidin-4-yl]-dimethyl-ammonium bromide]
< 1 | Cn1c(-c2ccnn2-c2ccc(C#N)cc2)c(C(=O)N[C@H]2C[C@H](C(=O)NCC[N+](C)(C)C)C2)c(=O)n1-c1cccc(C(F)(F)F)c1 [Example 51, {2-[(Trans-3-{[2′-(4-cyano-phenyl)-2-methyl-5-oxo-1-(3-trifluoromethyl-phenyl)-2,5-dihydro-1H,2′H-[3,3′]bipyrazolyl-4-carbonyl]-amino}-cyclobutanecarbonyl)-amino]-ethyl}-trimethyl-ammonium benzene sulphonate]
< 1 | C[C@H](NC(=O)c1c(-c2ccnn2-c2ccc(C#N)cc2)n(C)n(-c2cccc(C(F)(F)F)c2)c1=O)C(=O)OCC1CC[N+](C)(C)CC1 [Example 38, 4-((S)-2-{[2′-(4-Cyano-phenyl)-2-methyl-5-oxo-1-(3-trifluoromethyl-phenyl)-2,5-dihydro-1H,2′H-[3,3′]bipyrazolyl-4-carbonyl]-amino}-propionyloxymethyl)-1,1-dimethyl-piperidinium benzene sulphonate]
